Laboratory results published in patent US12240841B2, “FXR small molecule agonist and preparation method therefor and use thereof” (Shanghai Institute of Materia Medica, Chinese Academy of …, priority 2019, dated 2025).

What was measured:
[1] = molecular target: T1, recombinant GST-FXR fusion protein (Homo sapiens, UniProt Q96RI1); test: FXR activity at the molecular level (AlphaScreen); format: biochemical
T1 sequence (Q96RI1 1-486): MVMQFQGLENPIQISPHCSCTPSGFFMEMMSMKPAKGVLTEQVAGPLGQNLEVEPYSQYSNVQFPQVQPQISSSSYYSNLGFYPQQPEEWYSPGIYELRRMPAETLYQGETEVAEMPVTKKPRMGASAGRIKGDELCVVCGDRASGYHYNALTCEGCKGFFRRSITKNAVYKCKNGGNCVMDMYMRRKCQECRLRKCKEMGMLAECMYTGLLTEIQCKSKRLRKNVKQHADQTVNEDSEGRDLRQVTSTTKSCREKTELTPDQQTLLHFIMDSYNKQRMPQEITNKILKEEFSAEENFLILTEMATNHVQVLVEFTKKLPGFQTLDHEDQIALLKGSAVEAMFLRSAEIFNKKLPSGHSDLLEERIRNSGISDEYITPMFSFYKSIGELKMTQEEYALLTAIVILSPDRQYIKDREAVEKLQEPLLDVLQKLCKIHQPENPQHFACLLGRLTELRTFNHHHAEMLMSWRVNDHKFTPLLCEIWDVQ
Description: Test Method for FXR Activity at the Molecular Level
FXR activity was determined using recombinant GST-FXR fusion protein by Perkin Elmer's AlphaScreen detection reagent. The reaction in this method was carried out in a 384-well plate, and the total reaction volume was 15 μL. The mixture of protein, agonist, co-regulatory factor, AlphaScreen® acceptor beads and AlphaScreen® donor beads was reacted in a buffer containing Tris-HCl 50 mM (pH7.4), 50 mM NaCl, BSA 0.1%, and 1 mM DTT. The FXR activity was reflected by the fluorescence signal intensity at 570 nm wavelength detected by the Envision fluorescence detector. The value of EC50 was calculated by the software Graphpad Prism 5.

FXR receptor = molecular target: T2, FXR receptor (Homo sapiens, UniProt Q96RI1); test: FXR activity at the cell level (FXRE luciferase reporter in 293T cells); format: cell-based; conditions: 293T cells; for Activity relative to OCA (%) 10 μM: luciferase reporter; for EC50: FXRE luciferase reporter, read-out: EC50 (cell level)
T2 construct: expressed in transfected cells; host or cells: 293T cells
T2 sequence (Q96RI1 1-486): T1 sequence (Q96RI1 1-486)
Description: The cells were cultured for 24 hours to ensure plasmid expression. Then the FXR receptor agonist to be tested was added and acted for 18 hours. The fluorescence intensity was detected using luciferase kit (steady-Glo Luciferase Assay system) to reflect the compound's activation efficiency on the FXR receptor. […] The appropriate concentration interval was selected, and the dose-dependent relationship, that is, the EC50 value, was calculated.

Row | Compound | EC50 [1] | Activity relative to OCA (%) 10 μM (FXR receptor) | EC50 (FXR receptor)
1 | Cc1ccccc1-c1noc(C2CC2)c1COC1CC2CCC(C1)N2c1ccc(-c2noc(=O)[nH]2)cn1 (stereo not drawn) [Example 40] | 94.4 nM | 105% | 2.11 nM
2 | O=c1[nH]c(-c2ccc(N3CCC(OCc4c(-c5c(Cl)cccc5Cl)noc4C4CC4)C3)cc2)no1 (stereo not drawn) [Example 6] | 3920 nM | 99% | 32 nM
3 | O=c1[nH]c(-c2ccc(N3C4CCC3CC(OCc3c(-c5ccccc5OC(F)F)noc3C3CC3)C4)cc2F)no1 (stereo not drawn) [Example 41] | 28.5 nM | 108% | 0.718 nM
4 | Cc1onc(-c2c(Cl)cccc2Cl)c1COC1CCN(c2ccc(-c3noc(=O)[nH]3)cc2)CC1 [Example 10] | 1040 nM | 202% | 0.2 nM
5 | Cn1cc(-c2noc(=O)[nH]2)c2cc(N3CCC(OCc4c(-c5c(Cl)cccc5Cl)noc4C4CC4)CC3)ccc21 [Example 19] | 3140 nM | 132% | 285 nM
6 | S=c1[nH]c(-c2ccc(N3CCC(OCc4c(-c5c(Cl)cccc5Cl)noc4C4CC4)CC3)cc2)no1 [Example 20] | 5470 nM | 146% | 5 nM
7 | O=c1[nH]c(-c2ccc(N3C4CCC3CC(OCc3c(-c5ccccc5OC(F)(F)F)noc3C3CC3)C4)cc2F)no1 (stereo not drawn) [Example 38] | 51.3 nM | 102% | 0.304 nM
8 | O=c1[nH]c(-c2c(F)cc(N3CCC(OCc4c(-c5ccccc5C(F)(F)F)noc4C4CC4)CC3)cc2F)no1 [Example 25] | 84.7 nM | 103% | 0.12 nM
9 | O=c1[nH]c(-c2ccc(N3CCC(OCc4c(-c5ccccc5C(F)(F)F)noc4C4CC4)CC3)cc2F)no1 [Example 24] | 59 nM | 105% | 0.196 nM
10 | O=c1[nH]c(-c2c(F)cc(N3CCC(OCc4c(-c5ccccc5OC(F)(F)F)noc4C4CC4)CC3)cc2F)no1 [Example 30] | 89 nM | 120% | 0.255 nM
11 | Cc1ccccc1-c1noc(C2CC2)c1COC1CC2CCC(C1)N2c1ccc(-c2noc(=O)[nH]2)c(F)c1 (stereo not drawn) [Example 42] | 80.4 nM | 106% | 0.96 nM
12 | O=c1[nH]c(-c2ccc(N3CCC(OCc4c(-c5c(Cl)cccc5Cl)noc4-c4ccccc4)CC3)cc2)no1 [Example 12] | 2880 nM | 63% | 35 nM
13 | O=c1[nH]c(-c2ccc(N3CCC(OCc4c(-c5ccccc5OC(F)(F)F)noc4C4CC4)CC3)cc2F)no1 [Example 29] | 108 nM | 120% | 0.938 nM
14 | O=c1[nH]c(-c2ccc(N3CCC(OCc4c(-c5c(Cl)cccc5Cl)noc4C4CC4)CC3)cc2F)no1 [Example 16] | 195 nM | 168% | 0.2 nM
15 | O=c1[nH]c(-c2ccc(N3CCC(OCc4c(-c5c(Cl)cccc5Cl)noc4C4CC4)CC3)c(F)c2)no1 [Example 18] | 614 nM | 150% | 2 nM
16 | O=c1[nH]c(-c2ccc(N3C4CCC3CC(OCc3c(-c5ccccc5OC(F)(F)F)noc3C3CC3)C4)nc2)no1 (stereo not drawn) [Example 34] | 19.7 nM | 122% | 0.388 nM
17 | O=c1[nH]c(-c2ccc(N3C4CCC3CC(OCc3c(-c5ccccc5C(F)(F)F)noc3C3CC3)C4)nc2)no1 (stereo not drawn) [Example 33] | 18.8 nM | 141% | 0.387 nM
18 | O=c1[nH]c(-c2ccc(N3C4CCC3CC(OCc3c(-c5c(Cl)cccc5Cl)noc3C3CC3)C4)nc2)no1 (stereo not drawn) [Example 32] | 4.33 nM | 103% | 0.0783 nM
19 | O=c1[nH]c(-c2ccc(N3C4CCC3CC(OCc3c(-c5c(Cl)cccc5Cl)noc3C3CC3)C4)cc2)no1 (stereo not drawn) [Example 7] | 6.7 nM | 88% | 6 nM
20 | O=c1[nH]c(-c2ccc(N3CCC(OCc4c(-c5ccccc5OC(F)(F)F)noc4C4CC4)CC3)c(F)c2)no1 [Example 28] | 380 nM | 107% | 0.617 nM
